Patent US10874752B2, “MIBG analogs and uses thereof” (Board of Regents of The University of Nebraska, priority 2015, dated 2020)

How the values were obtained:
[1] = Stability in mouse serum (HPLC of extracts); type: in vitro ADME; details: up to 24 h, ambient temperature or 37° C.
Description: (§1) Incubations: into a solution (1980 μL) of serum (mouse, human), buffer or cells media, a sample of (17a), (185-390 kBq) in 15-20 μL of 25% EtOH/PB (100 mM, pH 6.1) was added; the resulting mixture was briefly vortexed and kept (up to 24 h) at ambient temperature or inside the incubator (37° C./˜5% CO2). At each time point, a volume of 1 mL was withdrawn, the extract of sample prepared and analyzed by HPLC.
(§2) Preparation of extracts: a sample (1 mL) from each incubated mixture with compound (17a) was treated with MeCN (1 mL), vortexed, and centrifuged (2,000 rpm, 15 min). The supernatant was removed and the radioactivity measured. Aliquots of supernatant (250-500 μL) were acidified to pH˜6 with 0.05 N TFA (2-8 μL). The excess of MeCN was evaporated with a stream of nitrogen and water (100 μL) added. A mixture was passed through a 0.2μ filter and each sample (˜100 μL, 95-185 kBq) injected on HPLC system.
(§3) HPLC analysis of extracts: continued on Columbus C18 100 Å (5 μm, 4.6×250 mm) column; eluted at 0.8 mL/min with a linear gradient of MeCN from 0 to 95% over 60 min and 95% MeCN was kept for a period of further 20 min, detecting the radioactivity (Bioscan NaI(T)). Both solvents contained 0.07% TFA (v/v).

[2] = Stability in human serum (HPLC of extracts); type: in vitro ADME; details: up to 24 h, ambient temperature or 37° C.
Description: as §1, §2, §3

[3] = cited from earlier work
SK-N-SH cells = test: Uptake by SK-N-SH cells competed by MIBG; type: cell-based, human; details: competition with MIBG (FIG. 16)
human NB SK-N-SH cells = test: Radiotoxicity, clonogenic assay in SK-N-SH cells; type: cell-based
From the text: (§4) Conjugate 17b was used for further testing. […] All drugs were designed so that they produce either 5-radioiodo-2′-deoxyuridine [RIUdR] or its 5′-monophosphate. Both metabolites can participate in the DNA synthesis allowing deposits of high LET radiation directly within the DNA structure. RIUdR, incorporated into the DNA of cancer cells in place of thymidine, is retained there for the life of the cell. It is extraordinarily lethal when labeled with Auger-electron-emitting radioiodines, which produce a cascade of monoenergetic electrons known as conversion and Auger electrons. These electrons deposit their energy within a tiny sphere around the decaying atom, i.e., the effective distance of Auger electrons is less than the diameter of the cancer cell nucleus. As a result, their cytotoxicity is dependent on the intranuclear localization, i.e., within the DNA or immediate vicinity of the DNA. Radiotoxicity of several reagents was tested in SK-N-SH cells. Tested drugs eradicate NB cells more efficiently than MIBG.
FIG. 14A-C show results of a pilot radiotoxicity study comparing the reproductive integrity of colonies of human NB SK-N-SH cells treated with conjugate 17b (radiolabeled with ^125I) and ^125IMIBG at 37 kBq/mL, two weeks after treatment.

SK-N-SH NB cells = test: Subcellular distribution of 125I in SK-N-SH NB cells; type: cell-based, human; details: SK-N-SH NB cells exposed at 80 kBq/mL for 1 h, harvested 24 h later
From the text: as §4

N=C(N)NCCC(=O)OC[C@H]1O[C@@H](n2cc([125I])c(=O)[nH]c2=O)C[C@@H]1O [17a, 5-[^125I]-Iodo-5′-O-propionylguanidino-2′-deoxyuridine]
stability in mouse serum [1]: limited | stability in human serum [2]: limited

N=C(N)NCc1cccc([131I])c1 [^131IMIBG, ^131I-metaiodobenzylguanidine]
long-term survivors developing thyroid disorders ([3]; long-term survivors treated with 131IMIBG): over 80% | maximum tolerated dose ([3]; patients with neuroblastoma): > 600 MBq/kg

N=C(N)NCCCCCC(=O)OC[C@H]1O[C@@H](n2cc([125I])c(=O)[nH]c2=O)C[C@@H]1O [conjugate 17b, 5-[^125I]-Iodo-5′-O-hexanoylguanidino-2′-deoxyuridine]
uptake by SK-N-SH cells (SK-N-SH cells): competed by MIBG | retention within the cell (human NB SK-N-SH cells): trapped within the cell | radiotoxicity (reproductive integrity of colonies) (human NB SK-N-SH cells; 37 kBq/mL, two weeks after treatment, compared with 125IMIBG): far more radiotoxic | cells receiving a lethal dose of radiation, clonogenic assay (human NB SK-N-SH cells; 1 h with the drug, compared with 125IMIBG): more cells receive a lethal dose of radiation | subcellular distribution of 125I (SK-N-SH NB cells): All ^125I is associated with the DNA fraction
